Assay results: patent US4894453A, “2-substituted alkoxy-3-substituted-pyrazines” (Toyo Jozo Kabushiki Kaisha, priority 1986, dated 1990)

Key:
[1] = system: PAF-induced aggregation (rabbit platelet plasma); assay: Platelet aggregation inhibitory action on PAF-induced aggregation; type: cell-based; details: Oryctolagus cuniculus, 0.05 h, PAF 10-50 μg/ml, 37° C., 3 min incubation, hydrochloride salt, read-out: inhibition ratio, PAF-induced platelet aggregation
[2] = system: PAF-induced aggregation (rabbit platelet plasma); assay: as above; type: cell-based; details: Oryctolagus cuniculus, 0.05 h, PAF 10-50 μg/ml, 37° C., 3 min incubation, hydrochloride salt, read-out: inhibition ratio, PAF-induced platelet aggregation; remark: listed apart in the source
Description: (§1) The pharmacological activity of the present compounds [1] is illustrated below. All the compounds [1] used in the pharmacological tests were tested in the form of the hydrochloride salt thereof.
(§2) 1. Platelet aggregation inhibition:
(§3) Sample solution containing a compound [1] (final concentration 500 or 100 μM) is added to rabbit platelet plasma to which was added 10% by volume of a 3.8% sodium citrate solution, and the mixture is incubated at 37° C. for 3 minutes. A platelet activation factor (PAF, final concentration 10-50 μg/ml) or collagen (final concentration 2.5 μg/ml) is added thereto as an aggregating agent, and platelet aggregation activity is measured with an aggregometer. The results of assays for PAF-induced aggregation are shown in Table 3, and those for collagen-induced aggregation are shown in Table 4, which tables show the strong platelet aggregation inhibitory activity of the compounds [1] of the present invention.

[3] = system: blood flow, femoral artery / left back limb; assay: Vasodilation activity, changes in blood flow in perfused left back limb of anesthetized dog; type: in vivo; details: 100 μg into right femoral artery; relative to increased blood flow by 30 μg papaverin intra-arterially = 100%; hydrochloride salt
Description: as §1
2. Vasodilation activity:
A dog, pretreated with morphine (1.5 mg/kg, sc) is anesthesized with urethane (450 mg/kg, iv) and α-chloralose (45 mg/kg, iv), and immobilized in the dosal position. Right femoral arterial blood is introduced into a left femoral artery via a perfusion pump, and Sterling's resistance is connected to the exosomatic circulatory system to perfuse blood to a left back limb at constant pressure. The perfusion pressure is set at a value slightly higher than that of the average blood pressure of the animal. Sample (100 μg) dissolved in physiological saline solution is administered to a right femoral artery, and changes in blood flow are measured. Vasodilation activity is measured as a relative activity, by defining as 100% the increased rate of blood flow when 30 μg papaverin is administered intra-arterially. The results are shown in Table 5, where it will be seen that the compounds [1] of the present invention have strong vasodilation activity.

[4] = system: lipoperoxide generation in rat cerebrum; assay: Antioxidant activity (inhibition of lipoperoxide generation, method of Stocks et al.); type: biochemical; details: 100 μM; rat cerebrum supernatant, 37° C., 15 min, thiobarbituric acid, 532 nm; hydrochloride salt
Description: as §1
Antioxidant activity is determined according to the method of Stocks et al. [Clin. Sci. Mol. Med., 47: 215 (1974)]. Rat cerebrum is added to ice-cooled 40 mM phosphate saline buffer solution (PBS) (pH 7.4, 4 ml buffer per 1 g cerebrum), homogenized and centrifuged (1000×g, 4° C., 10 min.) to obtain a supernatant solution. The supernatant solution is diluted fivefold with the above ice-cooled PBS solution, and to a 0.9 ml aliquot thereof is added a sample containing a compound [1] (0.1 ml, final concentration 100 μM) dissolved in ethanol. The resultant mixture is incubated at 37° C. for 15 minutes, 35% perchloric acid (0.2 ml) is added, and the mixture is ice-cooled to stop the reaction and centrifuged (1300×g, 4° C., 10 min.). 0.5 ml thiobarbituric acid (5 g/lit. of 50% acetic acid) is added to the supernatant solution (1 ml), so as to measure its absorbancy at 532 nm. The amount of lipoperoxide thus generated is expressed as an amount of malondialdehyde.

[5] = system: collagen-induced aggregation (rabbit platelet plasma); assay: Platelet aggregation inhibitory action on collagen-induced aggregation; type: cell-based; details: Oryctolagus cuniculus, 0.05 h, collagen 2.5 μg/ml, 37° C., 3 min incubation, hydrochloride salt, read-out: inhibition ratio, collagen-induced platelet aggregation
Description: as §1, §2, §3

| SMILES | inhibition at 100 µM [2] [%] | inhibition ratio, lipoperoxide generation (antioxidant activity) [4] [%] | also measured |
| --- | --- | --- | --- |
| Cc1nc(C)c(OCC(=O)N2CCCCC2)nc1C [Compound 067] | – | – | inhibition at 300 µM [1]: 53% |
| Cc1nc(C)c(OCC(=O)N2CCN(C(=O)COc3nc(C)c(C)nc3C)CC2)nc1C [Compound 070] | – | – | inhibition at 500 µM [2]: 48% |
| Cc1nc(C)c(OCC(=O)N2CCOCC2)nc1C [Compound 075] | – | – | vasodilation activity [3]: 89% |
| Cc1nc(C)c(OCC(=O)NCCN2CCN(Cc3ccc(Cl)cc3)CC2)nc1C [Compound 135] | – | – | inhibition at 500 µM [2]: 77%; vasodilation activity [3]: 242% |
| Cc1nc(C)c(OCC(=O)NCCN2CCN(Cc3ccccc3)CC2)nc1C [Compound 136] | 50 | – | vasodilation activity [3]: 204% |
| Cc1nc(C)c(OCC(=O)NCCN2CCN(Cc3ccccc3Cl)CC2)nc1C [Compound 137] | 76 | – | vasodilation activity [3]: 216% |
| CCc1nc(C)c(C)nc1OC(C(=O)NCCN1CCOCC1)c1ccccc1 (centres unmarked) [Compound 341] | 42 | – | – |
| CCc1nc(C)c(C)nc1OC(C(=O)NCCN1CCN(Cc2ccccc2)CC1)c1ccccc1 (centres unmarked) [Compound 342] | 43 | – | – |
| CCc1nc(C)c(C)nc1OC(C(=O)NCCN1CCN(Cc2ccc([N+](=O)[O-])cc2)CC1)c1ccccc1 (centres unmarked) [Compound 344] | 44 | 48 | – |
| CCc1nc(C)c(C)nc1OC(C(=O)NCCN1CCCN(Cc2ccc(F)cc2)CC1)c1ccccc1 (centres unmarked) [Compound 347] | 59 | 51 | – |
| CCc1nc(C)c(C)nc1OC(C(=O)NCCN1CCCN(Cc2ccc(Cl)cc2)CC1)c1ccccc1 (centres unmarked) [Compound 348] | 70 | 62 | – |
| CCc1nc(C)c(C)nc1OCCN1CCCN(Cc2ccc([N+](=O)[O-])cc2)CC1 [Compound 502] | 81 | 69 | – |
| CCc1nc(C)c(C)nc1OCCN1CCCN(Cc2ccc(F)cc2)CC1 [Compound 503] | 42 | – | – |
| CCc1nc(C)c(C)nc1OCCN1CCCN(Cc2ccc(Cl)cc2)CC1 [Compound 504] | 60 | – | – |
| Cc1nc(C)c(OCCN2CCCN(Cc3ccc(Cl)cc3)CC2)nc1C [Compound 541] | 44 | – | – |
| Cc1nc(OCCN2CCCN(Cc3ccc(Cl)cc3)CC2)c(C(C)C)nc1C [Compound 547] | – | – | inhibition at 100 µM [5]: 56% |
| CCc1nc(OCCN2CCCCC2)c(C(C)C)nc1CC [Compound 550] | 56 | – | inhibition at 100 µM [5]: 85% |
| CCCCN1CCN(CCOc2nc(CC)c(CC)nc2C(C)C)CC1 [Compound 551] | 97 | – | – |
| CCc1nc(OCCN2CCN(Cc3ccccc3)CC2)c(C(C)C)nc1CC [Compound 552] | 78 | – | – |
| CCc1nc(OCCN2CCCN(Cc3ccc(OC)cc3)CC2)c(C(C)C)nc1CC [Compound 553] | 82 | – | – |
| CCc1nc(CC(C)C)c(OCCN2CCN(Cc3ccccc3)CC2)nc1CC [Compound 556] | 51 | – | inhibition at 100 µM [5]: 40% |

| SMILES | inhibition at 100 µM [2] [%] | inhibition ratio, lipoperoxide generation (antioxidant activity) [4] [%] | also measured |
| --- | --- | --- | --- |
| CCCCCc1nc2c(nc1OCCN1CCN(CCCC)CC1)CCCC2 [Compound 560] | 97 | – | – |
| CCCCCc1nc2c(nc1OCCN1CCN(Cc3ccccc3)CC1)CCCC2 [Compound 561] | 56 | – | – |
| CCCCCc1nc2c(nc1OCCN1CCCN(Cc3ccc(F)cc3)CC1)CCCC2 [Compound 562] | 45 | 65 | – |
| CCCCCCc1nc2c(nc1OCCN1CCN(CCCC)CC1)CCCC2 [Compound 565] | 94 | – | – |
| CCCCCCc1nc2c(nc1OCCN1CCN(Cc3ccccc3)CC1)CCCC2 [Compound 567] | 58 | – | – |
| CCCCCCc1nc2c(nc1OCCN1CCN(c3ccccc3OC)CC1)CCCC2 [Compound 570] | 40 | 65 | – |
| CCCCCCCc1nc2c(nc1OCCN1CCN(CCCC)CC1)CCCC2 [Compound 571] | 88 | – | – |
| CCCCCCCCc1nc2c(nc1OCCN1CCN(CCCC)CC1)CCCC2 [Compound 573] | 86 | 56 | inhibition at 100 µM [5]: 58% |
| CCCCCCCCCc1nc2c(nc1OCCN1CCN(CCCC)CC1)CCCC2 [Compound 580] | 94 | 77 | inhibition at 100 µM [5]: 80% |
| CCCCCCCCCc1nc2c(nc1OCCN1CCN(Cc3ccc(OC)cc3)CC1)CCCC2 [Compound 582] | – | 82 | inhibition at 100 µM [5]: 58% |
| CCCCCCCCCCc1nc2c(nc1OCCN1CCOCC1)CCCC2 [Compound 585] | – | 62 | inhibition at 100 µM [5]: 41% |
| CCCCCCCCCCc1nc2c(nc1OCCN1CCN(CCCC)CC1)CCCC2 [Compound 587] | 91 | 65 | inhibition at 100 µM [5]: 79% |
| CCCCCCCCCCc1nc2c(nc1OCCN1CCN(CCO)CC1)CCCC2 [Compound 588] | 64 | 65 | inhibition at 100 µM [5]: 78% |
| CCCCCCCCCCCCc1nc2c(nc1OCCN1CCN(CCCC)CC1)CCCC2 [Compound 595] | 85 | 70 | – |
| CCCCCCCCCCCCc1nc2c(nc1OCCN1CCN(c3ccccc3OC)CC1)CCCC2 [Compound 599] | – | 70 | – |
| CCCCCCCCCCCCCCc1nc2c(nc1OCCN1CCN(CCCC)CC1)CCCC2 [Compound 600] | 52 | 61 | – |
| CCCCCCCCCCCCCCc1nc2c(nc1OCCN1CCN(Cc3ccccc3)CC1)CCCC2 [Compound 601] | – | 67 | – |
| CCCCCCCCCCCCCCc1nc2c(nc1OCCN1CCN(Cc3ccc(F)cc3)CC1)CCCC2 [Compound 602] | – | 64 | – |
| CCCCCCCCCCCCCCc1nc2c(nc1OCCN1CCCN(Cc3ccc(Cl)cc3)CC1)CCCC2 [Compound 603] | – | 76 | – |
| CCCCCCCCCCCCCCCCc1nc2c(nc1OCCN1CCN(CCCC)CC1)CCCC2 [Compound 607] | – | 52 | – |
| CCCCCCCCCCCCCCCCc1nc2c(nc1OCCN1CCN(Cc3ccccc3)CC1)CCCC2 [Compound 608] | – | 55 | – |
